# Laboratory results taken from patent US20140072630A1, “COMBINATION THERAPY WITH NANOPARTICLE COMPOSITIONS OF TAXANE AND HEDGEHOG INHIBITORS” (ABRAXIS BIOSCIENCE, LLC, priority 2009, published 2014).
# Where “and” joins values, the source holds several entries; their conditions need not be identical. Equal values may be shown once.
# How the values were obtained:
# [1] = system: human colon adenocarcinoma HT29 xenograft; assay: Tumor growth in human colon adenocarcinoma HT29 xenograft model; format: in vivo, mice; details: for tumor inhibition as single agent: i.p., 75 mg/kg qdx12 and 100 mg/kg qdx12
# Procedure: The effects of each of ABI2012, ABI1914, ABI2088, and ABI2099 on tumor growth were studied in human colon adenocarcinoma HT29 xenograft model. Mice were implanted with HT29 cells and ABI2012, ABI1914, ABI2088, and […] were administered by intraperitoneal route (“i.p.”) to the mice at two dosages: 75 mg/kg qdx12 and 100 mg/kg qdx12. […] The body weights of the mice with HT 29 xenograft treated with ABI2012, ABI1914, ABI2088, or ABI2099 were monitored, as shown in FIGS. 5B and 5D.
# The effects of the combination of various Hedgehog pathway inhibitors (ABI2012, ABI1914, ABI2088, or ABI2099) and Abraxane® were studied in HT29 xenograft model. Each of ABI2012, ABI1914, ABI2088, and ABI2099 was administered at 75 mg/kg qdx12, i.p. Abraxane® was administered at 10 mg/kg q4dx3, i.v. The tumor volumes were measured. […] The body weights of the mice with HT 29 xenograft treated with each of ABI2012, ABI1914, ABI2088, and ABI2099 in combination with Abraxane® were monitored, as shown in FIG. 6B.
# Ab1(h) = Ab1(h) (Homo sapiens, UniProt P00519); assay: Kinase inhibition at 1 μM; format: biochemical; details: 1 μM of compound
# Excerpt: (§1) The activities of various hedgehog inhibitors (ABI2012, ABI1914, ABI2008, and ABI1915) on kinase inhibition were studied. […] The compounds were stable in microsomes.
# PKBa(h) = PKBa(h) (Homo sapiens, UniProt P31749); assay: Kinase inhibition at 1 μM; format: biochemical; details: 1 μM of compound
# PKBa(h), sequence (P31749 whole entry): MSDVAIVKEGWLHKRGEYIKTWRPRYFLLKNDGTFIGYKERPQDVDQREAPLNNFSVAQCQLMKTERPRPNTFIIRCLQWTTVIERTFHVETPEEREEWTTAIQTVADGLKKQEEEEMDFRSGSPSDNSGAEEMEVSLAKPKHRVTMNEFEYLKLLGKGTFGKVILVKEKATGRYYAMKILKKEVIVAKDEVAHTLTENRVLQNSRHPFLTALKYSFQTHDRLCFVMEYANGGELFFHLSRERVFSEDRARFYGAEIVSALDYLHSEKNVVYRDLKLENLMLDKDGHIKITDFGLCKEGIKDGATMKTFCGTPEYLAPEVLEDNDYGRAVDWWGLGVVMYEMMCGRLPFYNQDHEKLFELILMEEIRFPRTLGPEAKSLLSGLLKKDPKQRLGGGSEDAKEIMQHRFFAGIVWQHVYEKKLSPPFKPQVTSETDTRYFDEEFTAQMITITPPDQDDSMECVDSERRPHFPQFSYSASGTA
# Excerpt: as §1
# GF-1R(h), activate = GF-1R(h), activate (Homo sapiens, UniProt P08069); assay: Kinase inhibition at 1 μM; format: biochemical; details: 1 μM of compound
# Excerpt: as §1
# cSRC(h) = cSRC(h) (Homo sapiens, UniProt P12931); assay: Kinase inhibition at 1 μM; format: biochemical; details: 1 μM of compound
# cSRC(h), sequence (P12931 whole entry): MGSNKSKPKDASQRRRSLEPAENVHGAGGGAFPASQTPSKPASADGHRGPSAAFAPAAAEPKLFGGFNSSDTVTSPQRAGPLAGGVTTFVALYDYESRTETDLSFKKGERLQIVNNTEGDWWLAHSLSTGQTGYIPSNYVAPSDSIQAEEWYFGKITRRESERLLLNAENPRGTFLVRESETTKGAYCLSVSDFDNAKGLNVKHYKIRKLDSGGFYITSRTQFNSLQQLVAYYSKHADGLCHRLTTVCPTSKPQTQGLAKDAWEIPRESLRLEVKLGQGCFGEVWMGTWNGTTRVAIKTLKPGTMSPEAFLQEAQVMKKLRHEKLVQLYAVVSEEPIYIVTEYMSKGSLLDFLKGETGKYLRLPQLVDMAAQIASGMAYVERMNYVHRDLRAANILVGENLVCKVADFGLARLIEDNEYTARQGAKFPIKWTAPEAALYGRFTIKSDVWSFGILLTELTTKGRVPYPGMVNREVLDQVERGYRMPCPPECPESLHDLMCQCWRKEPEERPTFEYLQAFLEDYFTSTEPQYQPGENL
# Excerpt: as §1
# Met(h) = Met(h) (Homo sapiens, UniProt P08581); assay: Kinase inhibition at 1 μM; format: biochemical; details: 1 μM of compound
# Met(h), sequence (P08581 25-1390): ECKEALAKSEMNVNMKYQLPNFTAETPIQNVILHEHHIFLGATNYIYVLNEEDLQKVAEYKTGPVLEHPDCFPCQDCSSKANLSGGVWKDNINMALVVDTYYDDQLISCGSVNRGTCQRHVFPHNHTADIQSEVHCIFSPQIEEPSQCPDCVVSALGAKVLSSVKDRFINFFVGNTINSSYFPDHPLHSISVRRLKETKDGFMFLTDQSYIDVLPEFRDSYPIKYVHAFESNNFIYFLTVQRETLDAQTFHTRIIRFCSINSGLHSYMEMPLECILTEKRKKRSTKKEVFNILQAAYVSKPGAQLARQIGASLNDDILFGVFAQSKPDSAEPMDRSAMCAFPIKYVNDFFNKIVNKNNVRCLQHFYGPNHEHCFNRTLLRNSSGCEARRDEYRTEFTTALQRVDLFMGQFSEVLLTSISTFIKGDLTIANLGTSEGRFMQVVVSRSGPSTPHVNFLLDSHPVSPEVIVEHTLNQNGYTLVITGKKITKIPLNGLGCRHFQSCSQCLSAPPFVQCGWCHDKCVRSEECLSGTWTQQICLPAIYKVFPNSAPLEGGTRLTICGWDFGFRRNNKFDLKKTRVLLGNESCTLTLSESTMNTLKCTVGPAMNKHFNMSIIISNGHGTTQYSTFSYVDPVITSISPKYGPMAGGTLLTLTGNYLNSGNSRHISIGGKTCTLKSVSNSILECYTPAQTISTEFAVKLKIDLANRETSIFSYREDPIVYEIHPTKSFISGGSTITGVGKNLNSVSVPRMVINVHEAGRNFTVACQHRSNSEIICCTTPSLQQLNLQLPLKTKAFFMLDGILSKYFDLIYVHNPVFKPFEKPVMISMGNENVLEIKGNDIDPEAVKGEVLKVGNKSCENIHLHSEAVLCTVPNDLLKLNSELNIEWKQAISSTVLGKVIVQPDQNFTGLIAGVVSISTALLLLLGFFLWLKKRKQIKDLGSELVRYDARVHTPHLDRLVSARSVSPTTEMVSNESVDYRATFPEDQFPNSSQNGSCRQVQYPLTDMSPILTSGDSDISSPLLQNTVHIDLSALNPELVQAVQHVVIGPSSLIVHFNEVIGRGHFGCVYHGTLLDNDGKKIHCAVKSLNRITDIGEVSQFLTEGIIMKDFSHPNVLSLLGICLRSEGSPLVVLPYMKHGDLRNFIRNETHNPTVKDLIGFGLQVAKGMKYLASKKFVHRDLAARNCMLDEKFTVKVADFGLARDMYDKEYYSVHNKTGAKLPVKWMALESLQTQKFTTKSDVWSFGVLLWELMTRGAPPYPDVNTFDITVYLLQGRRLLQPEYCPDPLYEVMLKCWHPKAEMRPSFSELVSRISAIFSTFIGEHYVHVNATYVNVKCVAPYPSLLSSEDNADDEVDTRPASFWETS
# Excerpt: as §1
# Ret(h) = Ret(h) (Homo sapiens, UniProt P07949); assay: Kinase inhibition at 1 μM; format: biochemical; details: 1 μM of compound
# Excerpt: as §1
# Flt3(h) = Flt3(h) (Homo sapiens, UniProt P36888); assay: Kinase inhibition at 1 μM; format: biochemical; details: 1 μM of compound
# Flt3(h), sequence (P36888 27-993): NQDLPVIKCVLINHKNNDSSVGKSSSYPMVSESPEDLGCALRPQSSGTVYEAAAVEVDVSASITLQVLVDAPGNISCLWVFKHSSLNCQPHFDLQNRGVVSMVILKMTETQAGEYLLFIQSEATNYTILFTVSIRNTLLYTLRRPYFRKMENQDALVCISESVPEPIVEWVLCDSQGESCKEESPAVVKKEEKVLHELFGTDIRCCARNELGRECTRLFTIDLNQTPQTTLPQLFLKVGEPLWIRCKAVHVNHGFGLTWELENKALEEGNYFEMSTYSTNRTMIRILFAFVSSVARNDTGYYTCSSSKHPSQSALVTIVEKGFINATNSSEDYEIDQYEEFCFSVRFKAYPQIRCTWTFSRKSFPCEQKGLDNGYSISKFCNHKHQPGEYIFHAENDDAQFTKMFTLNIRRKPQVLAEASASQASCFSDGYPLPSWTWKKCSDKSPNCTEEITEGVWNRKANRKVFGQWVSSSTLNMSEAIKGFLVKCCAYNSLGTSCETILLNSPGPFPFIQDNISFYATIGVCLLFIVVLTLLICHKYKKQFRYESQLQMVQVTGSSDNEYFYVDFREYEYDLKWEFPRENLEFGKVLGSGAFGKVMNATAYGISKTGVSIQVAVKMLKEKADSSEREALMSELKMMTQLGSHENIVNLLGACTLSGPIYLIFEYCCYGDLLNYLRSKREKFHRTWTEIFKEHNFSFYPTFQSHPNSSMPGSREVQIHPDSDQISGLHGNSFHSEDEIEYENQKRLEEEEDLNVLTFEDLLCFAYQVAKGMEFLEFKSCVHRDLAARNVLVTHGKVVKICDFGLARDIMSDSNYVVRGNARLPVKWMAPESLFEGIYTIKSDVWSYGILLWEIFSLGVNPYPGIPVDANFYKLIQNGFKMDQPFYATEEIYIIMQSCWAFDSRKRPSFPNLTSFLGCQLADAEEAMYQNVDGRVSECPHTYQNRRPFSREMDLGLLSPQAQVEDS
# Excerpt: as §1
# GSK3β(h) = GSK3β(h) (Homo sapiens, UniProt P49841); assay: Kinase inhibition at 1 μM; format: biochemical; details: 1 μM of compound
# Excerpt: as §1
# EGFR(h) = EGFR(h) (Homo sapiens, UniProt P00533); assay: Kinase inhibition at 1 μM; format: biochemical; details: 1 μM of compound
# EGFR(h), sequence (P00533 25-1210): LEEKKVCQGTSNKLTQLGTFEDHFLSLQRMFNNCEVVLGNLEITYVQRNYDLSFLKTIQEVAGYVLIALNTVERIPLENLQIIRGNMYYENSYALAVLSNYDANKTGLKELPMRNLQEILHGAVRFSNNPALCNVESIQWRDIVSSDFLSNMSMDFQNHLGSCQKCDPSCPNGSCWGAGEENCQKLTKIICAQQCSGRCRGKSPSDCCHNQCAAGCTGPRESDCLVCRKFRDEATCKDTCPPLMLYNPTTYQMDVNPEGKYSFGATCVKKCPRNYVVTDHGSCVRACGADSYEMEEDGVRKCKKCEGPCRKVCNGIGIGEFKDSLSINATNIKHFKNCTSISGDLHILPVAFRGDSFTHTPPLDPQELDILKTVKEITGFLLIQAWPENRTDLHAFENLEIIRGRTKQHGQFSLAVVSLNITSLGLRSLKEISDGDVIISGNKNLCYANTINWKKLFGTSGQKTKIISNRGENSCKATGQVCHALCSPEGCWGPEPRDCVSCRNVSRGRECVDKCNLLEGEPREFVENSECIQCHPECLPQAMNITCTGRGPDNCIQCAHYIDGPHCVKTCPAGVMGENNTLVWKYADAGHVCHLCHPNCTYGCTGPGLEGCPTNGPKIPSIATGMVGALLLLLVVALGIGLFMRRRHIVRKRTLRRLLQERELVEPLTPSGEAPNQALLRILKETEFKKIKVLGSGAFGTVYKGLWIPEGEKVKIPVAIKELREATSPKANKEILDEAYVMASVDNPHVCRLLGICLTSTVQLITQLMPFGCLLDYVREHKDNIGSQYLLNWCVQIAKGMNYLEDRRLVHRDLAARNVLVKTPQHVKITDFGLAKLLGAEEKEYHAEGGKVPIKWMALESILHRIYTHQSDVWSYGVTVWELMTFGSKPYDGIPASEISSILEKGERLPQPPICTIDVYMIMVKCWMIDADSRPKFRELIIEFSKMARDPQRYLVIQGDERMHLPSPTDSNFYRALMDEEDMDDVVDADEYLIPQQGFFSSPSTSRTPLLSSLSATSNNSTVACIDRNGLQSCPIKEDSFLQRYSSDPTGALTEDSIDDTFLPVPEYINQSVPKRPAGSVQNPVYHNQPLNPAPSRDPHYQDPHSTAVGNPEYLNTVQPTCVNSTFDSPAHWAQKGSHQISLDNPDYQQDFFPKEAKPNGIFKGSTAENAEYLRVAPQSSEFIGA
# Excerpt: as §1
# EphB4(h) = EphB4(h) (Homo sapiens, UniProt P54760); assay: Kinase inhibition at 1 μM; format: biochemical; details: 1 μM of compound
# Excerpt: as §1
# cKit(h) = cKit(h) (Homo sapiens, UniProt P10721); assay: Kinase inhibition at 1 μM; format: biochemical; details: 1 μM of compound
# Excerpt: as §1
# PDGFRa(h) = PDGFRa(h) (Homo sapiens, UniProt P16234); assay: Kinase inhibition at 1 μM; format: biochemical; details: 1 μM of compound
# Excerpt: as §1
# MEK1(h) = MEK1(h) (Homo sapiens, UniProt Q02750); assay: Kinase inhibition at 1 μM; format: biochemical; details: 1 μM of compound
# MEK1(h), sequence (Q02750 whole entry): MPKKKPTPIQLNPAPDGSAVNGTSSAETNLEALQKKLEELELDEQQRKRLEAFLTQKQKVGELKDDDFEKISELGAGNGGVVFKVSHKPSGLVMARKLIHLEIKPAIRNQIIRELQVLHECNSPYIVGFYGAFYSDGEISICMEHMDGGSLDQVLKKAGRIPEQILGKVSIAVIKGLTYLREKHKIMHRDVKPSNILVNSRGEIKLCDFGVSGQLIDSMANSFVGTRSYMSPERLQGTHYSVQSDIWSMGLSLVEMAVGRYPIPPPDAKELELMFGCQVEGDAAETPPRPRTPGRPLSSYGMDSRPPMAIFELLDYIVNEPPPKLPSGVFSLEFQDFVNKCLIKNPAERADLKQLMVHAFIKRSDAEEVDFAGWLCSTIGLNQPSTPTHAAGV
# Excerpt: as §1
# Aurora-A(h) = Aurora-A(h) (Homo sapiens, UniProt O14965); assay: Kinase inhibition at 1 μM; format: biochemical; details: 1 μM of compound
# Excerpt: as §1
# mTOR(h) = mTOR(h) (Homo sapiens, UniProt P42345); assay: Kinase inhibition at 1 μM; format: biochemical; details: 1 μM of compound
# Excerpt: as §1
# TrkA(h) = TrkA(h) (Homo sapiens, UniProt P04629); assay: Kinase inhibition at 1 μM; format: biochemical; details: 1 μM of compound
# Excerpt: as §1
# [2] = Drug metabolism and pharmacokinetics, IV and oral dosing; format: in vivo
# murine Gli1 mRNA = assay: Q-RT-PCR of murine Gli1 mRNA in L3.6pl and ASPC-1 pancreatic cancer xenografts; format: in vivo, mice; details: IPI-926 orally 40 mg/kg, tumors collected 24 hours later; p<0.005
# Excerpt: (§2) The abilities of IPI-926 to regulate Gli1 expressions were examined in pancreatic cancer xenograft models of L3.6pl and ASPC-1. L3.6pl and ASPC-1 human pancreatic cell lines were implanted subcutaneously into mice. […] Human Hh ligand expression was detected and human Glil mRNA levels were not modulated with the treatment (data not shown).
# [3] = system: ASPC-1 human pancreatic tumor; assay: Tumor growth in ASPC-1 human pancreatic tumor model; details: day 41, compared to vehicle control; IPI-926 40 mg/kg orally QOD, Abraxane 20 mg/kg i.v. QW1
# Procedure: The ASPC-1 human pancreatic cell line was implanted subcutaneously and treatment was initiated on day 20 after implant. IPI-926 was administered orally at 40 mg/kg QOD and Abraxane® was dosed i.v. at 20 mg/kg QW1. The final i.v. dose of Abraxane® was administered on day 34 and the final dose of IPI-926 was administered on day 41. Re-growth was monitored after the treatment stopped.
# [4] = system: L3.6pl pancreatic cancer xenograft; assay: Tumor perfusion by contrast-enhanced ultrasound in L3.6pl xenograft; format: in vivo, mice
# Procedure: The effects of IPI-926 on tumor perfusion were examined in the L3.6pl pancreatic cancer xenograft model. The L3.6pl tumor cell line was injected subcutaneously and treatment with IPI-926 was initiated. IPI-926 or vehicle was administered orally at 40 mg/kg for seven consecutive days. Mice were subjected to ultrasound image analysis using perfusion contrast enhancement (microbubbles) during the imaging procedure. […] The time to reach peak contrast was measured and there was a decrease in the IPI-926 treated animals compared to vehicle-treated animals.
# human Gli1 mRNA = assay: Q-RT-PCR of human Gli1 mRNA in L3.6pl and ASPC-1 pancreatic cancer xenografts; format: in vivo; details: IPI-926 orally 40 mg/kg, tumors collected 24 hours later; data not shown
# Excerpt: as §2
# [5] = system: L3.6pl pancreatic xenograft; assay: Tumor growth in L3.6pl pancreatic xenograft model; details: days post implant; IPI-926 40 mg/kg QOD, Abraxane 20 mg/kg QW1
# Procedure: The L3.6pl human pancreatic cell line was implanted subcutaneously into mice and treatment was initiated on Day 10 after implant. IPI-926 was administered orally at 40 mg/kg every other day (“QOD”) and Abraxane® was administered i.v. at 20 mg/kg once a week (QW1). […] Mice remained on treatment and time to reach 1000 mm^3 was recorded. Once tumors reached 1000 mm^3, mice were taken off study.
# [6] = compound 75 mg/kg qdx12 i.p. + Abraxane 10 mg/kg q4dx3 i.v.
Compound,tumor inhibition as single agent [1],inhibition at 1 µM (Ab1(h)),inhibition at 1 µM (PKBa(h)),"inhibition at 1 µM (GF-1R(h), activate)",inhibition at 1 µM (cSRC(h)),inhibition at 1 µM (Met(h)),inhibition at 1 µM (Ret(h)),inhibition at 1 µM (Flt3(h)),inhibition at 1 µM (GSK3β(h)),inhibition at 1 µM (EGFR(h)),inhibition at 1 µM (EphB4(h)),inhibition at 1 µM (cKit(h)),inhibition at 1 µM (PDGFRa(h)),inhibition at 1 µM (MEK1(h)),inhibition at 1 µM (Aurora-A(h)),inhibition at 1 µM (mTOR(h)),inhibition at 1 µM (TrkA(h)),F ([2]; Oral dosing),"AUC(0-inf) ([2]; in vivo, IV dosing)","clearance ([2]; in vivo, IV dosing)",further results
CS(=O)(=O)c1ccc(C(=O)Nc2ccc(Cl)c(-c3nccc4ccccc34)c2)c(Cl)c1 [ABI1914],"none of ABI2012, ABI1914, ABI2088, and ABI2099 as single agent showed significant tumor inhibition effects",-18%,5%,-5%,3%,3%,-3%,-14%,3%,-3%,-12%,-4%,-3%,-9%,1%,6%,-12%,–,–,–,–
CS(=O)(=O)c1ccc(C(=O)Nc2ccc(Cl)c(-c3ccccn3)c2)c(Cl)c1 [GDC-0449],"none of ABI2012, ABI1914, ABI2088, and ABI2099 as single agent showed significant tumor inhibition effects",13%,-19%,8%,-1%,-19%,1%,1%,-4%,-9%,-33%,-4%,0%,2%,7%,-6%,-7%,53%,3980 ± 1540 ng·h/mL,4.65 ± 1.81 mL/min/kg,"half-life ([2]; in vivo, IV dosing): 79.2 ± 15.5 min; AUC(0-inf) ([2]; in vivo, Oral dosing): 10500 ± 3150 ng·h/mL; Cmax ([2]; in vivo, Oral dosing): 2760 ± 1020 ng/mL; Tmax ([2]; in vivo, Oral dosing): 40 ± 17.3 min"
CC(=O)Nc1ccc(C(=O)Nc2ccc(Cl)c(-c3nccc4ccccc34)c2)c(Cl)c1 [ABI2088],"none of ABI2012, ABI1914, ABI2088, and ABI2099 as single agent showed significant tumor inhibition effects",–,–,–,–,–,–,–,–,–,–,–,–,–,–,–,–,62%,1390 ± 164 ng·h/mL,12.1 ± 1.59 mL/min/kg,"enhancement of the antitumor activity of Abraxane [1, 6]: significantly enhanced the antitumor activity of Abraxane®; tumor growth inhibition in combination with Abraxane ([1]; day 22, compound 75 mg/kg qdx12 i.p. + Abraxane 10 mg/kg q4dx3 i.v.): about 100%; half-life ([2]; in vivo, IV dosing): 78.6 ± 8.4 min; Vd ([2]; in vivo, IV dosing, read-out: Vss): 1.02 ± 0.11 L/kg; AUC(0-inf) ([2]; in vivo, Oral dosing): 4310 ± 1200 ng·h/mL; Cmax ([2]; in vivo, Oral dosing): 1000 ± 659 ng/mL; Tmax ([2]; in vivo, Oral dosing): 30 min"
Cc1cc(C(F)(F)F)ccc1C(=O)Nc1ccc(Cl)c(-c2nccc3ccccc23)c1 [ABI2099],"none of ABI2012, ABI1914, ABI2088, and ABI2099 as single agent showed significant tumor inhibition effects",–,–,–,–,–,–,–,–,–,–,–,–,–,–,–,–,–,–,–,"enhancement of the antitumor activity of Abraxane [1, 6]: significantly enhanced the antitumor activity of Abraxane®"
"CC1=C2C[C@H]3[C@@H](CC[C@@H]4C[C@H](NS(C)(=O)=O)CC[C@@]43C)[C@@H]2CC[C@@]2(C1)O[C@@H]1C[C@H](C)CN[C@H]1[C@H]2C [IPI-926, IPI926]",–,–,–,–,–,–,–,–,–,–,–,–,–,–,–,–,–,–,–,–,"murine Gli1 mRNA expression (murine Gli1 mRNA): inhibition of murine Glil mRNA expression; tumor growth inhibition [3]: 38%; average peak time for contrast agent levels ([4]; 40 mg/kg orally for seven consecutive days, vehicle 11.0 seconds, p=0.0321): 4.75 s; Time to Peak (contrast) ([4]; individual mice, 40 mg/kg orally for seven consecutive days, 40 mg/kg): 3 s and 4 s and 6 s (2×); tumor perfusion ([4]; subcutaneous L3.6pl model, 40 mg/kg orally for seven days): increased tumor perfusion; human Gli1 mRNA levels (human Gli1 mRNA): not modulated; median % of mice on study (mice taken off study when tumors reached 1000 mm^3) [5]: no effect as a single agent"
